The results in this text go back to patent publication US20130071357A1, “IDENTIFICATION, PROLIFERATION IN SITU, HARVESTING, SEPARATION, AND TRANSPLANTATION OF ADULT-DERIVED REGENERATIVE PLURIPOTENT TRANSITIONAL BLASTOMERE-LIKE STEM CELLS AND METHODS OF TREATMENT THEREOF” (HEYGEN, LLC, priority 2011, published 2013).

≈ marks a conversion by molar mass, not a printed value.

The test system of series [1] is adult-derived regenerative pluripotent transitional blastomere-like stem cells. Description: differentiation of Tr-BLSCs after exposure to dexamethasone. The class given is cell-based. The settings on record: extended exposure to a range of dexamethasone concentrations. The text has this:
After extended exposure to a range of dexamethasone concentrations, adult-derived regenerative pluripotent transitional blastomere-like stem cells differentiated into more than 50 discrete cell types.

Series [2] in a line: solubility of dexamethasone. In kind it is physicochemical. As to the method: Dexamethasone solution, pH 7.4: This is typically made up in absolute ethanol (EtOH) because it is not soluble in water or media. Weigh out 0.039 gm of Dexamethasone (Dex, catalog #D-1756, Sigma) and add to 10 ml of absolute EtOH. This will make a 1×10^−2 M stock solution. Store this solution at −20° C. This is the most concentrated solution of Dex that can be made with complete solubility. Add 1 ml of the stock Dex solution made above to 9-ml Opti-MEM I medium with Glutamax. Aliquot 9 ml of this solution as 500 μl quantities in 2 ml cryovials and store at −20° C. Label these tubes as […]. Take the remaining 1 ml of 10^−6M Dex and add to 9 ml of Opti-MEM I medium with Glutamax. Aliquot 9 mls and reserve 1 ml as before. Label these tubes as 1×10^−7M Dex. Take the remaining 1 ml of 10^−7M Dex and add to 9 ml of Opti-MEM I medium with Glutamax. Aliquot 9 mls and reserve 1 ml as before. Label these tubes as 1×10^−8M Dex. Take the remaining 1 ml of 10^−8M Dex and add to 9 ml of Opti-MEM I medium with Glutamax. Aliquot 9 mls and reserve 1 ml as before. Label these tubes as 1×10^−9M Dex. Take the remaining 1 ml of 10^−9M Dex and add to 9 ml of Opti-MEM I medium with Glutamax. Aliquot all 10 mls. Label these tubes as 1×10^−10M Dex. These aliquots will bring 500 mls of media to the concentration of Dex labeled on the tube. Store the cryovials at −20° C.

Series [3] deals with adult pluripotent epiblast-like stem cells. Description: induction of epiblast-like stem cells in culture. In kind it is cell-based, rat. The settings on record: for response to progression agents: lineage-uncommitted ELSCs.
The subject of series [4] is adult totipotent blastomeric-like stem cells. Description: induction of blastomeric-like stem cells in culture. In kind it is cell-based, rat. The conditions noted are these: for response to progression agents: lineage-uncommitted BLSCs. The text has this:
1961; Rohme 1981; Young and Black, 2005a].
FIG. 7. Blastomeric-like stem cells (BLSCs) harvested from male Sprague-Dawley out bred rat 0001 and propagated from a single cell derived by serial dilution clonogenic analysis, then genomically labeled with LacZ to synthesize the beta-galactosidase gene product. Clone designated as Scl-44beta. […] B-L is phase contrast microscopy to show unstained cells in field of view. […] Original magnification 200×.
FIG. 8. Blastomeric-like stem cells (BLSCs) harvested from male Sprague-Dawley out bred rat 0001 and propagated from a single cell derived by serial dilution clonogenic analysis, then genomically labeled with LacZ to synthesize the beta-galactosidase gene product. Clone designated as Scl-44beta.

As a reminder, the solubility is how much of the substance goes into solution per volume.

In the case of `C[C@@H]1C[C@H]2[C@@H]3CCC4=CC(=O)C=C[C@]4(C)[C@@]3(F)[C@@H](O)C[C@]2(C)[C@@]1(O)C(=O)CO` [dexamethasone, Dexamethasone], the “discrete cell types formed” value in series [1] was “more than 50 discrete cell types”. Moreover, the “solubility in water or media” value in series [2] is “not soluble”. In addition, the solubility in series [2] (absolute ethanol, organic solvent or mixture, thermodynamic from solid, absolute EtOH, read-out: most concentrated solution with complete solubility) worked out at 10 mM (≈ 3920 µg/mL).
In the case of IGF-I: progression agent, the “response to progression agents” value in series [3] and in series [4] was “unresponsive” each time.
In the case of IGF-II: progression agent, the “response to progression agents” value in series [3] and in series [4] was “unresponsive” in each case.
On to “hepatocyte growth factor: lineage-induction agent”, for which the “response to lineage-induction agent” value in series [3] (ELSCs) and in series [4] (BLSCs) was “forming cells belonging to the endodermal lineage” throughout.
Take insulin: progression agent: the “response to progression agents” value in series [3] and in series [4] was “unresponsive” each time. In addition, the “induction in the presence of insulin” value in series [4] (clone Scl-44beta, insulin at 2 micrograms per ml, absence of inhibitors) is “no induction occurs”.
